Assay results taken from publication PMC8698070, “The Zoonotic Helminth Parasite Fasciola hepatica: Virulence-Associated Cathepsin B and Cathepsin L Cysteine Peptidases Secreted by Infective Newly Excysted Juveniles (NEJ)” (Animals : an Open Access Journal from MDPI, 2021).
“And” between values parts separate entries of the source, which are not always exact repeats. Equal entries are not always repeated. “Also recorded” adds a separate entry of the source. Where two headings read alike, the source gives them in different places. Where a SMILES comes first, the peptide text is derived from it. The star is where a group is joined. Cbz = O=C(OCc1ccccc1)*

Experiments:
[1] = molecular target: FhCB3 (Fasciola hepatica, UniProt A7UNB2); assay: Inhibition of recombinant FhCB3, fluorogenic substrate assay (Z-Val-Ile-Arg-AMC); format: biochemical; conditions: for inhibition of enzymatic activity (inhibitor screen, Figure 5), in words: FhCB3, inhibitor 1000-15 nM
Protocol: (§1) Recombinant peptidases were assayed for enzymatic activity using a fluorogenic substrate assay. The reactions were carried out in 0.1 M C-P buffer (pH 7.0) with 1 mM DTT in a final volume of 200 μL, in a black 96-well plate. Each well contained activated enzyme (140 nM) and 20 μM fluorogenic substrate, which was added to start the reaction. All assays were run in triplicate at 37 °C for 1 h. Enzyme activity was monitored by rate of hydrolysis and subsequent release of the AMC group on the synthetic peptide substrates at an excitation wavelength of 370 nm and an emission wavelength of 460 nm, as relative fluorescence units (RFU), in a PolarStar Omega Spectrophotometer (BMG Labtech, Aylesbury, UK). All data were plotted and analysed using MARS Data Analysis Software (BMG Labtech, UK) and GraphPad Prism version 5.
(§2) Commercially available inhibitors of cathepsin B (Ca074 and Ca074-OMe), cathepsin L (L, L1, LII, LIII and LIV), cathepsin K (KI, KII and KIII) and cathepsin S were purchased from Merck Millipore (Cork, Ireland; Supplementary Figure S2). The broad-spectrum papain peptidase inhibitor Z-Phe-Ala-FMK was purchased from Enzo Life Sciences (Exeter, UK). These were used to determine and compare the inhibition constant (Ki) against the recombinant FhCBs and FhCL3. All the assays were carried out in 0.1 M C-P buffer with 1 mM DTT and 0.01% Brij® L23, at the pH corresponding to the optimum for each enzyme in a total 200 µL reaction volume. The peptidases (140 nM) were pre-incubated with the inhibitor (1000-15 nM) at room temperature, for 30 min, before starting the reaction by the addition of the substrate that was optimal for each enzyme (FhCB1, Z-Phe-Arg-AMC; FhCB2 and FhCB3, Z-Val-Ile-Arg-AMC; FhCL3, Z-Gly-Pro-Arg-AMC). Substrate concentrations were equal to KM (shown in Table 1) and the apparent inhibition constant (Ki^app) values were calculated with GraphPad Prism 5, using the Morrison equation for tight binding inhibition (Equation (3)). For competitive inhibitors, such as those used in this study, Ki^app was fitted to a second equation (Equation (4)) from which Ki can be determined. (3) vi/vo=1−([E])+[I]+Kiapp)−([E]+[I]+Kiapp)^2−4[E][I] /2[E] (4) Kiapp=Ki(1+[S]/KM)

[2] = molecular target: FhCL3 (Fasciola hepatica, UniProt A0A879R2T5); assay: Inhibition of recombinant FhCL3, fluorogenic substrate assay (Z-Gly-Pro-Arg-AMC); format: biochemical; conditions: for inhibition of enzymatic activity (inhibitor screen, Figure 5), in words: FhCL3, inhibitor 1000-15 nM
Protocol: as §1, §2

[3] = molecular target: FhCB1 (Fasciola hepatica, UniProt Q8I7B2); assay: Inhibition of recombinant FhCB1, fluorogenic substrate assay (Z-Phe-Arg-AMC); format: biochemical; conditions: for inhibition of enzymatic activity (inhibitor screen, Figure 5), in words: FhCB1, inhibitor 1000-15 nM; for Ki: read-out: inhibition constant Ki
Protocol: as §1, §2

[4] = molecular target: T1, cathepsin L1 (HsCL1) (Homo sapiens, UniProt P07711); assay: Inhibitor screen against human cathepsin L1 control; format: biochemical
T1 construct: purchased Sigma-Aldrich; host or cells: human embryonic kidney cells
Excerpt: (§3) The Schistosoma mansoni cathepsin B1 (SmCB1) was also produced in our laboratory using P. pastoris as described above. The human cathepsin B (HsCB) and cathepsin L1 (HsCL1) were produced in human embryonic kidney cells (Sigma-Aldrich).
as §2
A panel of 12 commercially available cysteine peptidase inhibitors that preferentially target mammalian cathepsin B (Ca074 and Ca074-OMe), cathepsin L (L, L1, LII, LIII and LIV) cathepsin S (S) and cathepsin K (KI, KII and KIII) were screened against the FhCBs, FhCL3 and, as controls, HsCB and HsCL1. The broad-range cysteine peptidase inhibitor Z-Phe-Ala-FMK was also included (Figure 5).
(§4) Figure 5 Profile of inhibition of FhCB1, FhCB2, FhCB3 and FhCL3. Commercially available inhibitors of cathepsin B (Ca074 and Ca07a-OMe), cathepsin L (L, L1, LII, LIII and LIV), cathepsin K (KI, KII and KIII), cathepsin S and the broad-spectrum papain peptidase inhibitor Z-Phe-Ala-FMK (A–L) were used to determine and compare the inhibition constant against recombinants FhCB1, FhCB2, FhCB3, FhCL3, HsCB and HsCL1. Activity is represented as the percentage of enzymatic activity observed by hydrolysis of a fluorogenic quenched peptide substrate following a pre-incubation with inhibitor in relation to the activity of the enzyme alone. Error bars indicate standard deviation of three replicates.

[5] = molecular target: FhCB2 (Fasciola hepatica, UniProt A5X493); assay: Inhibition of recombinant FhCB2, fluorogenic substrate assay (Z-Val-Ile-Arg-AMC); format: biochemical; conditions: for inhibition of enzymatic activity (inhibitor screen, Figure 5), in words: FhCB2, inhibitor 1000-15 nM
Protocol: as §1, §2

[6] = molecular target: T2, human cathepsin B (HsCB) (Homo sapiens, UniProt P07858); assay: Inhibitor screen against human cathepsin B control; format: biochemical
T2 construct: purchased Sigma-Aldrich; host or cells: human embryonic kidney cells
Excerpt: as §3
as §2, with “All the assays were carried out in 0.1 M C-P buffer with 1 mM DTT and 0.01% Brij® L23, at the pH corresponding to the optimum for each enzyme in a total 200 µL reaction volume. The peptidases (140 nM) were pre-incubated with the inhibitor (1000-15 nM) at room temperature, for 30 min, before starting the reaction by the addition of the substrate that was optimal for each enzyme (FhCB1, Z-Phe-Arg-AMC; FhCB2 and FhCB3, Z-Val-Ile-Arg-AMC; FhCL3, Z-Gly-Pro-Arg-AMC).” left out
The broad-range cysteine peptidase inhibitor Z-Phe-Ala-FMK was also included (Figure 5).
as §4, with “Activity is represented as the percentage of enzymatic activity observed by hydrolysis of a fluorogenic quenched peptide substrate following a pre-incubation with inhibitor in relation to the activity of the enzyme alone.” left out

[7] = system: NEJ; set-up: method as in PMID 19401154; conditions: concentration of 6.25 μM; cited from earlier work
[8] = molecular target: human cathepsins S; set-up: method as in PMID 10964677; conditions: human cathepsin S; cited from earlier work
[9] = molecular target: human cathepsins B; set-up: method as in PMID 10964677; conditions: human cathepsin B; cited from earlier work
[10] = system: F. hepatica NEJ; assay: Viability of NEJ in culture; format: cell-based, Fasciola hepatica; conditions: 100 μM inhibitor, 24 h culture, compared to the DMSO group
Protocol: NEJ were washed three times in a culturing medium (RPMI-1640 medium supplemented with 30 mM HEPES, 0.1% glucose, 10% foetal bovine serum and 50 μg/mL of gentamicin) and their viability assessed by culturing the parasites in 1 mL of culture medium containing 100 μM of the inhibitor at 5% CO2 at 37 °C for 24 h. After incubation, the number of moribund/dead parasites were counted using a light microscope (25× magnification). The criteria used to assess the NEJ viability were loss of motility and peristaltic movement and any obvious damage to the tegument or internal structures, as previously standardized by. The experiments were performed in triplicate. The average of the replicate experimental data was subjected to a two-way ANOVA comparing the values obtained with each inhibitor against the mean of the DMSO control group, with minimum 95% confidence intervals. All the statistical analyses were performed using GraphPad Prism 5.

[11] = system: F. hepatica metacercariae; set-up: method as in PMID 19443417; conditions: final concentration of 1 mM; cited from earlier work
[12] = system: F. hepatica metacercariae; assay: Excystment of F. hepatica metacercariae in vitro; format: cell-based, Fasciola hepatica; conditions: 100 μM inhibitor, 3 h, 37 °C, 50 metacercariae per well; vs DMSO control
Protocol: F. hepatica metacercariae (Italian isolate; Ridgeway Research, Saint Briavels, UK) were prepared for excystment as previously described by Robinson et al.. To verify the effect of the cathepsin peptidase inhibitors on the ability of the metacercariae to excyst, 50 metacercariae per well were placed into a 24-well plate and 1 mL of excystment medium (0.6% sodium bicarbonate, 0.45% sodium chloride, 0.4% sodium tauroglycocholate, 0.025 N HCl and 0.4% L-cysteine) supplemented with 100 μM of the inhibitor was added to the well. As controls, we used PBS and dimethylsulfoxide (DMSO, 1:100; Sigma-Aldrich) alone. The plate was then incubated at 37 °C with 5% CO2, for 3 h to allow metacercarial excystment. Using a light microscope (25× magnification), the number of excysted NEJ was determined.

[13] = inhibition constant Ki, recombinant FhCL3 140 nM, 30 min pre-incubation, substrate Z-Gly-Pro-Arg-AMC at KM, optimum pH, ± SEM
[14] = recombinant FhCB1 140 nM, 30 min pre-incubation, substrate Z-Phe-Arg-AMC at KM, optimum pH, ± SEM

FhCB3, sequence (A7UNB2 entry or part of it): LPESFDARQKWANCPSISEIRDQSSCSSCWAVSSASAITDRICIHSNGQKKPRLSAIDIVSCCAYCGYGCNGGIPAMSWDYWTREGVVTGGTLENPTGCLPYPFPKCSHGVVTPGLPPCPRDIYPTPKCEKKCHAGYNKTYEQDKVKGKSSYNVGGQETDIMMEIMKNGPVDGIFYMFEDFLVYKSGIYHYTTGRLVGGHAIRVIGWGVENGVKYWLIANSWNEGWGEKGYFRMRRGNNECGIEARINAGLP
FhCB1, sequence (Q8I7B2 entry or part of it): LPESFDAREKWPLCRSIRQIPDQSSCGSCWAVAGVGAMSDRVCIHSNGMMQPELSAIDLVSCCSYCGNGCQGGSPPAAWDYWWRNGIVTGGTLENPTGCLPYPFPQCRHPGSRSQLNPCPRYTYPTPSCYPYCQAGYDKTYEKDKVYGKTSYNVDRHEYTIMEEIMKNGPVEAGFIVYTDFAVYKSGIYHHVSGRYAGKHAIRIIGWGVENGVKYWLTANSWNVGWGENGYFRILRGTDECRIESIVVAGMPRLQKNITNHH
FhCL3, sequence (A0A879R2T5 entry or part of it): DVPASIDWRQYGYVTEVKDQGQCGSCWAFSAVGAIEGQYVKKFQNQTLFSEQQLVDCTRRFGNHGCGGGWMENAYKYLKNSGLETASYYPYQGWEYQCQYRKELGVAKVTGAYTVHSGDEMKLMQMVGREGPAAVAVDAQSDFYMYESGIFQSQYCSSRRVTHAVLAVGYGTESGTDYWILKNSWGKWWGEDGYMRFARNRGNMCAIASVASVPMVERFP
FhCB2, sequence (A5X493 entry or part of it): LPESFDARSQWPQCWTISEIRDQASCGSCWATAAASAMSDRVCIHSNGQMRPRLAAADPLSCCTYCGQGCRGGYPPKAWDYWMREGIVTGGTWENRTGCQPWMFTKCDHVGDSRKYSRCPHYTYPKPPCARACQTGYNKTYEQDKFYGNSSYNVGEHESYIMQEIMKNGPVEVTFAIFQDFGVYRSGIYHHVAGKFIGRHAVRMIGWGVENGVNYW
T1 sequence (P07711 114-333): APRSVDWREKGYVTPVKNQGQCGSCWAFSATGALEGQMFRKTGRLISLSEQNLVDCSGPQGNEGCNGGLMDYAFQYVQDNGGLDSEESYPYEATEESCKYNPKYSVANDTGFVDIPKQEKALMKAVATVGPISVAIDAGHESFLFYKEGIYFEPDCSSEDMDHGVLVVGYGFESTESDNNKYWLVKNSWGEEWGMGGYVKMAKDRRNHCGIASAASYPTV

With `O=CC(Cc1ccc(O)cc1)NC(=O)C(Cc1ccccc1)NC(=O)OCc1ccccc1` (stereo not drawn) [LII] (Cbz-Phe-Tyr-aldehyde; configuration not given here) the “inhibition of enzymatic activity (inhibitor screen, Figure 5), in words” value (“inhibition of enzymatic activity” below) [1] was “most effective at reducing the enzymatic activity”, the Ki ([1]; recombinant FhCB3 140 nM, 30 min pre-incubation, substrate Z-Val-Ile-Arg-AMC at KM, optimum pH, ± SEM, read-out: inhibition constant Ki) was 211 ± 34.8 nM and the “inhibition of enzymatic activity” value [2] was “most effective at reducing the enzymatic activity”. The Ki ([2]; recombinant FhCL3 140 nM, 30 min pre-incubation, substrate Z-Gly-Pro-Arg-AMC at KM, optimum pH, ± SEM, read-out: inhibition constant Ki) was 8 ± 0.6 nM, the “inhibition of enzymatic activity” value [3] was “most effective at reducing the enzymatic activity” and the “inhibition of enzymatic activity” value [4] was “specificity for HsCL1 over HsCBs; also recorded: inhibited”. The “inhibition of enzymatic activity” value [5] was “most effective at reducing the enzymatic activity”, the Ki ([5]; recombinant FhCB2 140 nM, 30 min pre-incubation, substrate Z-Val-Ile-Arg-AMC at KM, optimum pH, ± SEM, read-out: inhibition constant Ki) was 1840 ± 77 nM and the “inhibition of enzymatic activity” value [6] was “inhibited”.
For `CCCNC(=O)[C@H]1O[C@@H]1C(=O)N[C@H](C(=O)N1CCC[C@H]1C(=O)OC)[C@@H](C)CC` [Ca074ME], the Ki [1] was 785 ± 130 nM, the “inhibition of enzymatic activity” value ([1]; listed as Ca074-OMe) was “poor inhibitors; also recorded: very poor inhibitors” and the “inhibition constant Ki” value ([1]; recombinant FhCB3 140 nM, 30 min pre-incubation, substrate Z-Val-Ile-Arg-AMC at KM, optimum pH, ± SEM) was “poor inhibition”. The “inhibition of enzymatic activity” value [2] was “poor inhibitors”, the Ki [2, 13] was 249 ± 35.5 nM and the “inhibition constant Ki” value ([2]; recombinant FhCL3 140 nM, 30 min pre-incubation, substrate Z-Gly-Pro-Arg-AMC at KM, optimum pH, ± SEM) was “poor inhibition”. For the same compound, the “inhibition of enzymatic activity” value ([3]; listed as Ca074-OMe) was “poor inhibitors; also recorded: very poor inhibitors”, the “inhibition constant Ki” value [3, 14] was “poor inhibition” and the Ki [3, 14] was 5500 ± 1190 nM. For the same compound, the “inhibition of enzymatic activity” value ([5]; listed as Ca074-OMe) was “poor inhibitors; also recorded: very poor inhibitors”, the “inhibition constant Ki” value ([5]; recombinant FhCB2 140 nM, 30 min pre-incubation, substrate Z-Val-Ile-Arg-AMC at KM, optimum pH, ± SEM) was “poor inhibition” and the “inhibition of enzymatic activity” value [6] was “selective for HsCB compared to HsCL1”. The “effect on cultured NEJ” value [7] was “sub-lethal effect”.
For `CC(C)C[C@H](NC(=O)[C@H](Cc1ccccc1)NC(=O)OCc1ccccc1)C(=O)C=O` [S], the Ki [1] is listed as 696 ± 94.8 nM, the Ki [8] is listed as 0.185 nM and the Ki [2, 13] is listed as 35 ± 2.4 nM. For the same compound, the Ki [3, 14] was 14 ± 2.42 nM, the Ki [9] was 76 nM and the “reduction of NEJ viability (survival)” value [10] was ~ 55%.
For `C[C@H](NC(=O)[C@H](Cc1ccccc1)NC(=O)OCc1ccccc1)C(=O)CF` [Z-Phe-Ala-FMK], the Ki [1] is given as 246 ± 55.7 nM, the “effect on metacercariae excystment” value [11] is given as “completely prevented” and the Ki [2, 13] is given as 15 ± 5.95 nM. For the same compound, the Ki [3, 14] was < 15 nM and 3 nM and the “reduction of metacercariae excystment” value [12] was “more than 50%”.
